# Measured values taken from ChEMBL document CHEMBL5356966, “A dual mechanism with H2S inhibition and membrane damage of morusin from Morus alba Linn. against MDR-MRSA” (2024).
# Activity calls are given as the source filed them. The calls are words filed in the database; no cut-off is given here.
# Tests used:
# [1] = test system: Staphylococcus aureus; assay: Antibacterial activity methicillin-resistant Staphylococcus aureus 003 assessed as inhibition of H2S production at 1/4 times MIC; assay type: functional
# [2] = test system: Staphylococcus aureus; assay: Antibacterial activity methicillin-resistant Staphylococcus aureus 003 assessed as inhibition of H2S production at 1/4 to 1/8 times MIC; assay type: functional, organism-based
# [3] = test system: Staphylococcus aureus; assay: In vivo antibacterial activity against methicilin-resistant Staphylococcus aureus infected in ICR mouse skin infection model assessed as reduction in bacterial burden at 5 mg/kg, ip preadministered with compound for 24 hrs followed by bacterial infection and measured after 3 days; assay type: functional; parameters: scale not given: the % may be the effect or the level left; details: time 96 hrs
# [4] = test system: Staphylococcus aureus; assay: In vivo antibacterial activity against methicilin-resistant Staphylococcus aureus infected in ICR mouse skin infection model assessed as reduction in bacterial burden at 20 mg/kg, ip preadministered with compound for 24 hrs followed by bacterial infection and measured after 3 days; assay type: functional; parameters: scale not given: the % may be the effect or the level left; details: time 96 hrs
# [5] = test system: Staphylococcus aureus; assay: Antibacterial activity methicillin-resistant Staphylococcus aureus 003 assessed as downregulation of plsY expression by qRT-PCR analysis; assay type: functional, organism-based
# [6] = test system: Staphylococcus aureus; assay: In vivo antibacterial activity against methicilin-resistant Staphylococcus aureus infected in ICR mouse skin infection model assessed as reduction in bacterial burden at 10 mg/kg, ip preadministered with compound for 24 hrs followed by bacterial infection and measured after 3 days; assay type: functional; parameters: scale not given: the % may be the effect or the level left; details: time 96 hrs
# [7] = test system: Staphylococcus aureus; assay: Antibacterial activity methicillin-resistant Staphylococcus aureus 011 assessed as inhibition of bacterial growth incubated for 24 hrs by CLSI based analysis; assay type: functional
# [8] = test system: Staphylococcus aureus; assay: Antibacterial activity methicillin-resistant Staphylococcus aureus 003 assessed as inhibition of bacterial growth incubated for 24 hrs by CLSI based analysis; assay type: functional
# [9] = test system: Staphylococcus aureus; assay: Antibacterial activity Staphylococcus aureus assessed as inhibition of bacterial growth incubated for 24 hrs by CLSI based analysis; assay type: functional
# [10] = test system: Enterococcus; assay: Antibacterial activity vancomycin-resistant Enterococcus assessed as inhibition of bacterial growth incubated for 24 hrs by CLSI based analysis; assay type: functional
# [11] = test system: Escherichia coli; assay: Antibacterial activity Escherichia coli assessed as inhibition of bacterial growth incubated for 24 hrs by CLSI based analysis; assay type: functional
# [12] = test system: Acinetobacter baumannii; assay: Antibacterial activity Acinetobacter baumannii assessed as inhibition of bacterial growth incubated for 24 hrs by CLSI based analysis; assay type: functional
# [13] = test system: Staphylococcus aureus; assay: Bactericidal activity methicillin-resistant Staphylococcus aureus 011 assessed as inhibition of bacterial growth incubated for 24 hrs by CLSI based analysis; assay type: functional
# [14] = test system: Staphylococcus aureus; assay: Bactericidal activity methicillin-resistant Staphylococcus aureus 003 assessed as inhibition of bacterial growth incubated for 24 hrs by CLSI based analysis; assay type: functional
# [15] = test system: Staphylococcus aureus; assay: Bactericidal activity Staphylococcus aureus assessed as inhibition of bacterial growth incubated for 24 hrs by CLSI based analysis; assay type: functional
# [16] = test system: Enterococcus; assay: Bactericidal activity vancomycin-resistant Enterococcus assessed as inhibition of bacterial growth incubated for 24 hrs by CLSI based analysis; assay type: functional
# [17] = test system: Staphylococcus aureus; assay: Bactericidal activity against Staphylococcus aureus at 2 to 4 times MIC measured after 24 hrs by time kill assay; assay type: functional, organism-based
# [18] = test system: Staphylococcus aureus; assay: Bactericidal activity against Staphylococcus aureus at 2 to 4 times MIC measured after 30 mins by time kill assay; assay type: functional, organism-based
# [19] = test system: Staphylococcus aureus; assay: Bactericidal activity against methicilin-resistant Staphylococcus aureus 003 at 2 to 4 times MIC measured after 24 hrs by time kill assay; assay type: functional, organism-based
# [20] = test system: Staphylococcus aureus; assay: Bactericidal activity against methicilin-resistant Staphylococcus aureus 003 at 8 times MIC measured after 24 hrs by time kill assay; assay type: functional, organism-based
# [21] = test system: Staphylococcus aureus; assay: Induction of resistance development in Staphylococcus aureus incubated for 24 hrs treated over 20 serial passages by broth microdilution analysis; assay type: functional, organism-based
# [22] = test system: Staphylococcus aureus; assay: Induction of resistance development in methicilin-resistant Staphylococcus aureus incubated for 24 hrs treated over 20 serial passages by broth microdilution analysis; assay type: functional, organism-based
# [23] = test system: Staphylococcus aureus; assay: Induction of resistance development in methicilin-resistant Staphylococcus aureus 003 incubated for 24 hrs treated over 11 serial passages by broth microdilution analysis; assay type: functional, organism-based
# [24] = test system: Staphylococcus aureus; assay: Induction of resistance development Staphylococcus aureus incubated for 24 hrs treated over 11 serial passages by broth microdilution analysis; assay type: functional, organism-based
# [25] = test system: Cell membrane; assay: Induction of inner membrane permeability in methicillin-resistant Staphylococcus aureus 003 assessed as increase in fluorescence intensity incubated for 30 mins
# [26] = test system: Cell membrane; assay: Induction of inner membrane permeability in vancomycin-resistant Enterococcus assessed as increase in fluorescence intensity incubated for 30 mins
# [27] = test system: Cell membrane; assay: Induction of inner membrane permeability in methicillin-resistant Staphylococcus aureus 003 assessed as fold change in MIC in presence of phosphatidylglycerol; assay type: subcellular
# [28] = test system: Cell membrane; assay: Induction of inner membrane permeability in methicillin-resistant Staphylococcus aureus 003 assessed as fold change in MIC in presence of phosphatidylethanolamine; assay type: subcellular
# [29] = test system: Cell membrane; assay: Induction of inner membrane permeability in methicillin-resistant Staphylococcus aureus 003 assessed as fold change in MIC in presence of cardiolipin; assay type: subcellular
# [30] = test system: Cell membrane; assay: Induction of inner membrane permeability in methicillin-resistant Staphylococcus aureus 003 assessed as fold change in MIC in presence of peptidoglycan; assay type: subcellular
# [31] = test system: Cell membrane; assay: Induction of inner membrane permeability in Escherichia coli assessed as increase in fluorescence intensity measured for 15 mins in presence of Polymyxin B sulfate
# [32] = test system: Cell membrane; assay: Disruption of bacterial cell membrane in methicilin-resistant Staphylococcus aureus 003 assessed as as appearance of wrinkled cell incubated for 1 hr by DAPI/PI staning based confocal laser microscopic analysis; assay type: subcellular
# [33] = test system: Cell membrane; assay: Disruption of bacterial cell membrane in vancomycin-resistant Enterococcus assessed as as appearance of wrinkled cell incubated for 1 hr by DAPI/PI staning based confocal laser microscopic analysis
# [34] = test system: Staphylococcus aureus; assay: Antibacterial activity methicillin-resistant Staphylococcus aureus 003 assessed as decrease in membrane fluidity incubated for 50 mins; assay type: functional, organism-based
# [35] = test system: Staphylococcus aureus; assay: Antibacterial activity methicillin-resistant Staphylococcus aureus 003 under […] condition at pH 5.5 to 9.5; assay type: functional, organism-based
# [36] = test system: Enterococcus; assay: Antibacterial activity vancomycin-resistant Enterococcus under […] condition at pH 5.5 to 9.5; assay type: functional, organism-based
# [37] = test system: Staphylococcus aureus; assay: Antibacterial activity methicillin-resistant Staphylococcus aureus 003 assessed as increase in fluorescence intensity at 1 time MIC; assay type: functional
# [38] = test system: Staphylococcus aureus; assay: Antibacterial activity methicillin-resistant Staphylococcus aureus 003 assessed as increase in fluorescence intensity at 4 time MIC; assay type: functional
# [39] = test system: Staphylococcus aureus; assay: Antibacterial activity methicillin-resistant Staphylococcus aureus 003 assessed as increase in fluorescence intensity by DiSC3(5) dye based analysis; assay type: functional, organism-based
# [40] = test system: Staphylococcus aureus; assay: Antibacterial activity methicillin-resistant Staphylococcus aureus 003 assessed as decrease in intracellular pH at 4 time MIC measured up to 74 mins; assay type: functional, organism-based
# [41] = test system: Enterococcus; assay: Antibacterial activity vancomycin-resistant Enterococcus assessed as decrease in intracellular pH at 4 time MIC measured up to 74 mins; assay type: functional, organism-based
# [42] = test system: Staphylococcus aureus; assay: Antibacterial activity methicillin-resistant Staphylococcus aureus 003 assessed as increase in intracellular ATP level incubated for 30 mins; assay type: functional, organism-based
# [43] = test system: Staphylococcus aureus; assay: Antibacterial activity methicillin-resistant Staphylococcus aureus 003 assessed as downregulation of fabD expression by qRT-PCR analysis; assay type: functional, organism-based
# [44] = test system: Staphylococcus aureus; assay: Antibacterial activity methicillin-resistant Staphylococcus aureus 003 assessed as downregulation of fabF expression by qRT-PCR analysis; assay type: functional, organism-based
# [45] = test system: Staphylococcus aureus; assay: Antibacterial activity methicillin-resistant Staphylococcus aureus 003 assessed as downregulation of fabG expression by qRT-PCR analysis; assay type: functional, organism-based
# [46] = test system: Staphylococcus aureus; assay: Antibacterial activity methicillin-resistant Staphylococcus aureus 003 assessed as downregulation of fabH expression by qRT-PCR analysis; assay type: functional, organism-based
# [47] = test system: Staphylococcus aureus; assay: Antibacterial activity methicillin-resistant Staphylococcus aureus 003 assessed as downregulation of fabZ expression by qRT-PCR analysis; assay type: functional, organism-based
# [48] = test system: Staphylococcus aureus; assay: Antibacterial activity methicillin-resistant Staphylococcus aureus 003 assessed as ROS accumulation at 2 to 8 times MIC incubated for 60 mins; assay type: functional, organism-based
# [49] = test system: Staphylococcus aureus; assay: In vivo antibacterial activity against methicilin-resistant Staphylococcus aureus infected in ICR mouse skin infection model assessed as wound area at 5 mg/kg, ip preadministered with compound for 24 hrs followed by bacterial infection and measured after 3 days; assay type: functional; details: time 96 hrs
# [50] = test system: Staphylococcus aureus; assay: In vivo antibacterial activity against methicilin-resistant Staphylococcus aureus infected in ICR mouse skin infection model assessed as wound area at 10 mg/kg, ip preadministered with compound for 24 hrs followed by bacterial infection and measured after 3 days; assay type: functional; details: time 96 hrs
# [51] = test system: Staphylococcus aureus; assay: In vivo antibacterial activity against methicilin-resistant Staphylococcus aureus infected in ICR mouse skin infection model assessed as wound area at 20 mg/kg, ip preadministered with compound for 24 hrs followed by bacterial infection and measured after 3 days; assay type: functional; details: time 96 hrs
# [52] = test system: Cell membrane; assay: Disruption of bacterial cell membrane in methicilin-resistant Staphylococcus aureus 003 assessed as increase in green fluorescence intensity incubated for 1 hr by DAPI/PI staning based confocal laser microscopic analysis
compound,measurement,setting,value
CC(C)=CCc1c(-c2ccc(O)cc2O)oc2c3c(cc(O)c2c1=O)OC(C)(C)C=C3 [MORUSIN],inhibition (INH),[1],12%
same,inhibition,[2],Active
same,Activity,[3],50%
same,Activity,[4],90%
same,Activity,[5],Active
same,Activity,[6],80%
same,MIC,[7],8 mg/L
same,MIC,[8],4 mg/L
same,MIC,[9],4 mg/L
same,MIC,[10],8 mg/L
same,MIC,[11],> 512 mg/L
same,MIC,[12],> 512 mg/L
same,MBC,[13],16 mg/L
same,MBC,[14],16 mg/L
same,MBC,[15],8 mg/L
same,MBC,[16],16 mg/L
same,Activity,[17],Active
same,Activity,[18],Active
same,Activity,[19],Active
same,Activity,[20],Active
same,Activity,[21],inactive
same,Activity,[22],inactive
same,Activity,[23],Active
same,Activity,[24],Active
same,Activity,[25],Dose-Dependent Effect
same,Activity,[26],Dose-Dependent Effect
same,fold change (FC),[27],8
same,fold change (FC),[28],32
same,fold change (FC),[29],8
same,Activity,[30],inactive
same,Flu intensity,[31],0.9
same,Activity,[32],Active
same,Activity,[33],Active
same,Activity,[34],Dose-Dependent Effect
same,Activity,[35],Active
same,Activity,[36],Active
same,Flu intensity,[37],334
same,Flu intensity,[38],354
same,Activity,[39],Dose-Dependent Effect
same,Activity,[40],Active
same,Activity,[41],Active
same,Activity,[42],Dose-Dependent Effect
same,Activity,[43],Active
same,Activity,[44],Active
same,Activity,[45],Active
same,Activity,[46],Active
same,Activity,[47],Active
same,Activity,[48],Active
same,Activity,[49],0.3 cm2
same,Activity,[50],0.16 cm2
same,Activity,[51],0.1 cm2
C[C@@H](O)[C@H]1C(=O)N2C(C(=O)O)=C(S[C@@H]3CN[C@H](C(=O)N(C)C)C3)[C@H](C)[C@H]12 [MEROPENEM],MIC,[7],> 128 mg/L
same,MIC,[8],> 128 mg/L
same,MIC,[9],2 mg/L
same,MIC,[10],8 mg/L
same,Activity,[52],Active
